Key:
[1] = system: BRIN-BD11 cells; experiment: Membrane potential in BRIN-BD11 cells (fluorimetric); type: cell-based; conditions: peptide 1 μM, 10 min, vs 5.6 mM glucose alone
Procedure: (§1) Changes in membrane potential and [Ca^2+]i were determined fluorimetrically using monolayers of BRIN-BD11 cells as previously described by Miguel et al (2004) and Abdel-Wahab et al (2007) using a membrane potential assay kit or a Ca^2+ assay kit (Molecular Devices, Sunnyvale, Calif., USA) according to the manufacturer's recommended protocols. Data were acquired using a FlexStation scanning fluorimeter with integrated fluid transfer workstation (Molecular Devices). The cells were incubated at 37° C. for 10 min with synthetic peptides at a concentration of 1 μM. Control incubations in the presence of 5.6 mM glucose only, 30 mM KCl, and 10 mM alanine were also carried out.

[2] = system: BRIN-BD11 cells; experiment: Insulin release from BRIN-BD11 cells with known modulators of insulin secretion / extracellular calcium; type: cell-based; conditions: 16.7 mM glucose; peptide 10^-6 M
Procedure: Cellular mechanism of actions of synthetic peptides was investigated by measuring insulin-release from BRIN-DB11 cells in the presence or absence of synthetic peptides (10^−6M) and known modulators of insulin-release. These additional incubations were carried in (a) medium supplemented with 16.7 mM glucose, (b) calcium-free medium supplemented with 5.6 mM glucose, (c) medium containing 5.6 mM glucose and diazoxide ([…]), (d) medium containing 5.6 mM glucose and verapamil ([…]), and (e) medium supplemented with 16.7 mM glucose and 30 mM KCl. Cells were incubated for 20 min at 37° C. and insulin concentrations in cell supernatants were measured by radioimmunoassay (Flatt and Bailey (1981)).
Without being bound by theory, by incubating BRIN-BD11 cells with the known modulators of insulin release in the absence or presence of the peptides and peptide analogues of the present invention (10^-6M), it was shown that the stimulatory effect of the peptides was inhibited in the presence of verapamil (50 μM) and chelation of extracellular calcium but completely abolished in the presence of diazoxide (200 μM). Moreover, insulin secretion increased with the co-incubation of the peptide with IBMX (200 μM), and tolbutamide (200 μM).

[3] = system: BRIN-BD11 cells; experiment: Insulin release from BRIN-BD11 cells (radioimmunoassay); type: cell-based
Procedure: BRIN-BD11 cells (Public Health England; Cat. No: 10033003) were grown at 37° C. in an atmosphere of 5% CO2 and 95% air in RPMI-1640 tissue culture medium containing 10% (v/v) fetal calf serum, antibiotics (100 U/ml penicillin, 0.1 mg/ml streptomycin) and 11.1 mM glucose as previously described (Marenah et al, 2004; Conlon et al, 2008; and Mechkarska et al, 2011). The cells were pre-incubated for 40 min at 37° C. in 1.0 ml Krebs Ringer bicarbonate (KRB) buffer, pH 7.4 supplemented with either 5.6 mM or 16.7 mM glucose and 0.1% (w/v) bovine serum albumin (Conlon et al, 2008). Incubations with synthetic peptides (10^−12-3×10^−6 M; n =8) were performed for 20 min at 37° C. using the same buffer. After incubation, aliquots of cell supernatant were removed for insulin radioimmunoassay as described by Flatt and Bailey (1981).

[4] = system: NIH Swiss TO mice; experiment: Acute in vivo glucose tolerance study, i.p. glucose with peptide; conditions: peptide 75 nmol/kg bw i.p. with glucose; for plasma insulin concentration after intraperitoneal glucose load: mice
Procedure: (§2) All animal experiments were carried out in accordance with the UK Animals (Scientific Procedures) Act 1986 and EC Directive 86/609/EEC for animal experiments. For acute in vivo glucose tolerance studies, age-matched groups (n =6) of overnight fasted male NIH Swiss TO mice received an intraperitoneal injection of either glucose alone (32% w/v) or in combination with synthetic peptides (75 nmol/kg body weight). All solutions were administered in 0.9% NaCl (5 ml/kg body weight). Blood glucose concentrations were measured by Bayer Ascencia Blood glucose meter and plasma insulin concentrations were measured by radioimmunoassay as described by Flatt and Bailey (1981). For chronic in vivo studies, male NIH Swiss TO mice were fed high fat diet or standard diet from 8 weeks of age to 27 weeks of age. Peptides were administered twice daily for 28 days. No adverse effects were observed following administration of the peptide. Parameters including body weight, energy intake, blood glucose and plasma insulin levels were monitored once in three days for 28 days. Body weight and energy intake were measured by weighing mice and food weights respectively. At the end of the study, to determine glucose tolerance, glucose (18 mmol/kg bw) was injected (i.p) to overnight fasted mice and blood glucose levels were monitored at 0, 15, 30, 60 and 90 minutes. To determine insulin sensitivity, insulin (25 U/kg bw) was injected and blood glucose levels were monitored at 0, 15, 30 and 60 minutes. To determine blood glucose profile over a period of 24 h, blood glucose levels were monitored at 0 (before peptide administration), 2, 4, 8 (before peptide administration) and 24 h (before peptide administration). Lean and fat mass were determined by DXA scanning and terminal blood and tissues were collected for ex vivo studies including pancreatic islet morphology, hormone content, lipid profile and islet function.

[5] = system: BRIN-BD11 cells; experiment: Intracellular calcium in BRIN-BD11 cells (fluorimetric); type: cell-based; conditions: peptide 1 μM, 10 min, vs 5.6 mM glucose alone
Procedure: as §1

[6] = system: Swiss TO mice on high fat diet; experiment: Chronic in vivo study, twice-daily peptide for 28 days in high fat fed mice; conditions: for glucose tolerance: end of 28 day study, glucose 18 mmol/kg bw i.p., overnight fasted; for blood glucose levels during treatment: monitored once in three days for 28 days; for effect on body weight change relative to Exendin-4 / body weight change (Day 0-Day 28): twice daily; for effect on body weight change relative to Exendin-4 / body weight change (Day 0-Day 28) / plasma insulin levels during treatment: 28 days; for body weight change (Day 0-Day 28): vs lean and high fat diet saline control
Procedure: as §2, with “No adverse effects were observed following administration of the peptide.” left out
In vivo anti-diabetic effects of Exendin-4, Esculentin-2CHa-(GA30), [D-Arg7, D-Lys15,D-Lys23]-esculentin-2CHa-(GA30), and Lys15-octanoate-Esculentin-2CHa-(GA30) were assessed using Swiss TO mice fed high fat diet, with appropriate controls (saline treated mice on standard diet or high fat diet).

[7] = vs high fat diet saline control

Substance | plasma insulin concentration after intraperitoneal glucose load [4] | glucose tolerance [6] | effect on body weight change relative to Exendin-4 [6] | body weight change (Day 0-Day 28) [6] | islet area, beta and alpha cell area [6, 7] | plasma insulin area under curve [6, 7] | further results
Esculentin-2CHa | increase plasma insulin concentrations | – | – | – | – | – | membrane depolarization [1]: significantly enhanced membrane depolarization; insulin-release stimulatory effects in the presence of high glucose [2]: retained; insulin release from BRIN-BD11 cells ([3]; 5.6 mM glucose, peptides 10^-12-3x10^-6 M, 20 min): dose-dependent stimulatory effects; plasma glucose after intraperitoneal glucose load ([4]; mice with diet-induced obesity diabetes (so in the source)): significantly reduced plasma glucose concentration; plasma insulin concentration after intraperitoneal glucose load ([4]; listed as esculentin-2CHa): significantly increased; intracellular calcium [5]: caused an increase in intracellular calcium
Lys15-octanoate-Esculentin-2CHa-(GA30) | – | improved glucose tolerance, with lowered plasma glucose and insulin levels | comparable to Exendin-4 | significant reduction in body weight | significantly reduced islet area, beta and alpha cell area | markedly lower than high fat diet saline control | blood glucose levels during treatment [6]: reduced blood glucose levels markedly from day 6; LDL levels [6, 7]: reduced LDL levels; plasma insulin levels during treatment [6, 7]: reduced plasma insulin levels significantly from day 12
[Lys20, Lys27, Ser31, Ser37]-Esculentin-2CHa | significantly increased | – | – | – | – | – | acute in vivo effects compared to native peptide [4]: comparable to the effects of native esculentin-CHa
Esculentin-2CHa-(GA30) | significantly increased | improved glucose tolerance, with lowered plasma glucose and insulin levels | comparable to Exendin-4 | significant reduction in body weight | significantly reduced islet area, beta and alpha cell area | markedly lower than high fat diet saline control | plasma insulin levels during treatment [6, 7]: reduced plasma insulin levels significantly from day 12; insulin-releasing potency compared to native peptide ([3]; at lower concentrations): more potent than the native peptide at lower concentrations; acute in vivo effects compared to native peptide [4]: comparable to the effects of native esculentin-CHa
Exendin-4 [reference compound] | – | improved glucose tolerance, with lowered plasma glucose and insulin levels | – | significant reduction in body weight | significantly reduced islet area, beta and alpha cell area | – | –
[Lys20, Lys27]-Esculentin-2CHa-(GA30) | significantly increased | – | – | – | – | – | –
[D-Arg7, D-Lys15,D-Lys23]-esculentin-2CHa-(GA30) | – | improved glucose tolerance, with lowered plasma glucose and insulin levels | comparable to Exendin-4 | significant reduction in body weight | significantly reduced islet area, beta and alpha cell area | markedly lower than high fat diet saline control | blood glucose levels during treatment [6]: reduced blood glucose levels from day 21

— US10202427B2, “Esculentin-2CHa peptide and analogues thereof” (UNIVERSITY OF ULSTER, priority 2014, dated 2019)
